≈ marks a conversion by molar mass, not a printed value. Read-outs that look alike come from different tables or passages of the source. Values belong to the molecule of their own block, whether it stands above or below them.
How the values were obtained:
Candida albicans = experiment: Antifungal susceptibility testing, broth dilution (MIC/MFC); type: cell-based
Experimental: (§1) Specifically, disclosed compounds were evaluated alongside commercially available microtubulin inhibitors as well as recognized antifungal agents.
(§2) Microorganisms against which these compounds were tested included: Candida albicans, Candida glabrata, Aspergillus fumigatus, Trichophyton rubrum, Trichophyton mentagrophytes, Epidermophyton floccosum. With the exception of Candida glabrata (one isolate), two isolates of each species were tested.
(§3) The minimum lethal concentration (MLC) was determined by plating […] from the MIC concentration and each concentration above the MIC. […] When a MIC was obtained, a minimum fungicidal concentration (MFC) was determined to assess the fungistatic/fungicidal nature of the compound.

Candida glabrata = experiment: as above; type: cell-based; conditions: Nakaseomyces glabratus; C. glabrata; read-out: MIC
Experimental: as §1, §2, §3

MAP-rich microtubules = experiment: Microtubule mean length distributions, transmission electron microscopy; type: biochemical, bovine; conditions: in words
Experimental: Transmission electron microscopy was used to determine the mean length distribution of microtubules in the absence or presence of tested agent. At 75 minutes and prior to sedimentation, 10 μl aliquots from the polymer mass experiments were fixed by dilution into 290 μl PEM100-buffered 0.2% glutaraldehyde. Thirty microliters of fixed sample was settled onto formvar-coated 150 ICG mesh electron microscope grids for 90 seconds. Excess sample was wicked off with Whatman filter paper. Thirty microliters of cytochrome C (1 mg/ml) was applied for 30 seconds to enhance protofilament resolution and facilitate negative staining. Uranyl acetate (1.5%) was applied for 20 seconds and the excess was wicked off Grids were viewed in a Jeol electron microscope-1200 EX11 at 2000× and 30,000× magnification. The Zeiss MOPIII was used to determine microtubule length distributions and mean lengths for at least 100 microtubules per sample.

HuVEC = experiment: Action on microtubule function, α-tubulin staining; conditions: 2 μM, thirty minutes exposure
HT-29 cells = experiment: Additional cytotoxicity assays, resazurin (Table 3.1); type: cell-based, human; conditions: Table 3.1
Experimental: 10× concentrated serial dilutions of the two compounds were prepared in appropriate culture medium for final concentrations ranging from 2.0×10^−5 M to 2.0×10^−10 M. Ten μl volumes of the 10× serial dilutions were added to the test wells in triplicate and the plates returned to the incubator for 48 hours.
(§4) Following 48 hours of drug exposure 10 μl of 0.2 mg/ml resazurin (obtained from Sigma-Aldrich Chemical Co.) in Mg^2+, Ca^2+ free PBS was added to each well and the plates were returned to the incubator for 3-4 hours. […] Resazurin dye without cells was used to determine the background, which was subtracted from the data for all experimental wells. The data were analyzed using Prism software (GraphPad Software).
Additional cytotoxicity assays were performed as described above under this example, using Resazurin fluorescence as an indicator of cell viability.

Trichophyton rubrum = experiment: Antifungal susceptibility testing, broth dilution (MIC/MFC); type: cell-based; conditions: Trichophyton rubrum
Experimental: as §1, §2, §3

Epidermophyton floccosum = experiment: as above; type: cell-based
Experimental: (§5) Specifically, disclosed compounds were evaluated alongside commercially available microtubulin inhibitors as well as recognized antifungal agents. […].
as §2
(§6) Drug concentrations were 0.03-16 μg/ml for the investigational compounds, 0.015-8 μg/ml for itraconazole and griseofulvin.
as §3, with “compound. […] The compound is scored as fungistatic if the cells are able to resume growth and fungicidal if no regrowth is possible because the compound had killed the organisms.” for “compound.”

[1] = tested on: Trichophyton mentagrophytes; experiment: as above; type: cell-based; conditions: Trichophyton mentagrophytes
Experimental: as §5, §2, §6
as §3, with “compound. […] The compound is scored as fungistatic if the cells are able to resume growth and fungicidal if no regrowth is possible because the compound had killed the organisms.” for “compound.”

[2] = tested on: HT-29 human colorectal carcinoma cells; experiment: Cell growth inhibition assay, resazurin (Table 3.2); type: cell-based; conditions: Table 3.2, HT-29 cells, read-out: EC50 (M) Mean
Procedure, shortened: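 HT-29 cells seeded at 5×10^3/well overnight, then exposed in triplicate to compounds at final 20 μM to […] (0.25% DMSO) for 48 h at 37° C. Viability read by resazurin reduction after 3-4 h further incubation, with cell-free dye background subtracted.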

B16-F10 melanoma = experiment: Cell growth inhibition assay, resazurin (Example 11); type: cell-based; conditions: Mus musculus, 48 hours, mean ± SD where n ≧ 3
Experimental: (§7) The growth inhibitory activity of NPI-2421, NPI-2463, NPI-2503 and NPI-2504 were determined against selected human (colorectal adenocarcinoma, HT-29; breast adenocarcinoma, MDA-MB-231; non-small cell lung carcinoma, NCI-H292 and prostate carcinomas, PC-3 and DU 145) and mouse (melanoma, B16-F10) tumor cell lines.
(§8) HT-29 (HTB-38), MDA-MB-231 (HTB-26), NCI-H292 (CRL-1848), B16-F10 (CRL-6475), PC-3 (CRL-1435) and DU 145 (HTB-81) cells were all purchased from the ATCC. The cell lines were maintained in their respective ATCC recommended culture media and cultured in an incubator at 37° C. in 5% CO2 and 95% humidified air.
(§9) 20 mM stock solutions of compounds were prepared in 100% DMSO and stored at −80° C. 10× concentrated serial dilutions of the compounds were prepared in B16-F10 cell culture medium for final concentrations ranging from 20 μM to […]. Ten μl volumes of the 10× serial dilutions were added to the test wells in triplicate and the plates returned to the incubator for 48 hours. The final concentration of DMSO was 0.25% in all samples.
as §4, with “exposure,” for “exposure”, “phosphate buffered saline” for “PBS”, “3-6” for “3-4”, “dye in medium” for “dye”, “wells.” for “wells. The data were analyzed using Prism software (GraphPad Software).”

[3] = tested on: HT-29 colorectal adenocarcinoma; experiment: as above; type: cell-based; conditions: Homo sapiens, 48 hours, mean ± SD where n ≧ 3
Experimental: as §7, §8, §9
as §4, with “exposure,” for “exposure”, “phosphate buffered saline” for “PBS”, “3-6” for “3-4”, “dye in medium” for “dye”, “wells.” for “wells. The data were analyzed using Prism software (GraphPad Software).”

[4] = tested on: MDA-MB-231 breast adenocarcinoma; experiment: as above; type: cell-based; conditions: Homo sapiens, 48 hours, mean ± SD where n ≧ 3
Experimental: as §7, §8, §9
as §4, with “exposure,” for “exposure”, “phosphate buffered saline” for “PBS”, “3-6” for “3-4”, “dye in medium” for “dye”, “wells.” for “wells. The data were analyzed using Prism software (GraphPad Software).”

[5] = tested on: NCI-H292 non-small cell lung carcinoma; experiment: as above; type: cell-based; conditions: Homo sapiens, 48 hours, mean ± SD where n ≧ 3, ** n = 1
Experimental: as §7, §8, §9
as §4, with “exposure,” for “exposure”, “phosphate buffered saline” for “PBS”, “3-6” for “3-4”, “dye in medium” for “dye”, “wells.” for “wells. The data were analyzed using Prism software (GraphPad Software).”

PC-3 prostate carcinoma = experiment: as above; type: cell-based; conditions: Homo sapiens, 48 hours, mean ± SD where n ≧ 3, ** n = 1
Experimental: as §7, §8, §9
as §4, with “exposure,” for “exposure”, “phosphate buffered saline” for “PBS”, “3-6” for “3-4”, “dye in medium” for “dye”, “wells.” for “wells. The data were analyzed using Prism software (GraphPad Software).”

[6] = tested on: MES-SA human uterine sarcoma; experiment: as above; type: cell-based; conditions: mean ± standard deviation of three independent experiments
Experimental: (§10) Human uterine sarcoma (MES-SA; CRL-1976), its multidrug resistant derivative (MES-SA/Dx5; CRL-1977), human acute promyelocytic leukemia cells (HL-60; CCL-240) and its multidrug resistant derivative (HL-60/MX2; CRL-2257) were purchased from ATCC and maintained in appropriate culture media. The cells were cultured in an incubator at 37° C. in 5% CO2 and 95% humidified air.
(§11) For cell growth inhibition assays, MES-SA and MES-SA/Dx5 cells were both seeded at 3×10^3 cells/well in 90 μl complete media into 96 well (Corning; 3904) black-walled, clear-bottom tissue culture plates and the plates were incubated overnight to allow cells to establish and enter log phase growth. HL-60 and HL-60/MX2 cells were both seeded at 5×10^4 cells/well in 90 μl complete media into 96 well plates on the day of compound addition. 20 mM stock solutions of the compounds were prepared in 100% DMSO and stored at −80° C. […] Ten μl volumes of the 10× serial dilutions were added to the test wells in triplicate and the plates returned to the incubator for 48 hours. The final concentration of DMSO was 0.25% in all samples.
as §4, with “exposure,” for “exposure”, “phosphate buffered saline” for “PBS”, “3-6” for “3-4”, “dye in medium” for “dye”, “wells.” for “wells. The data were analyzed using Prism software (GraphPad Software).”
(§12) The multidrug resistant MES-SA/Dx5 tumor cell line was derived from the human uterine sarcoma MES-SA tumor cell line and expresses elevated P-Glycoprotein (P-gp), an ATP dependent efflux pump. The data in Table 19 summarize the growth inhibitory effects of NPI-2421, NPI-2463, NPI-2503, NPI-2504 and NPI-2506 against MES-SA and its multidrug resistant derivative MES-SA/Dx5. Paclitaxel, a known substrate of the P-gp pump was included as a control.

[7] = tested on: MES-SA/Dx5 multidrug resistant; experiment: as above; type: cell-based, human
Experimental: as §10, §11
as §4, with “exposure,” for “exposure”, “phosphate buffered saline” for “PBS”, “3-6” for “3-4”, “dye in medium” for “dye”, “wells.” for “wells. The data were analyzed using Prism software (GraphPad Software).”
as §12

[8] = tested on: HL-60 human acute promyelocytic leukemia cells; experiment: as above; type: cell-based; conditions: mean values of two independent experiments
Experimental: as §10, §11
as §4, with “exposure,” for “exposure”, “phosphate buffered saline” for “PBS”, “3-6” for “3-4”, “dye in medium” for “dye”, “wells.” for “wells. The data were analyzed using Prism software (GraphPad Software).”
(§13) HL-60/MX2 is a multidrug resistant tumor cell line derived from the human promyelocytic leukemia cell line, HL-60 and expresses reduced topoisomerase II activity. The data presented in Table 20 summarize the growth inhibitory effects of NPI-2421, NPI-2463, NPI-2503, NPI-2504 and NPI-2506 against HL-60 and its multidrug resistant derivative HL-60/MX2. Mitoxantrone, the topoisomerase II targeting agent was included as a control.

[9] = tested on: HL-60/MX2 multidrug resistant; experiment: as above; type: cell-based, human
Experimental: as §10, §11
as §4, with “exposure,” for “exposure”, “phosphate buffered saline” for “PBS”, “3-6” for “3-4”, “dye in medium” for “dye”, “wells.” for “wells. The data were analyzed using Prism software (GraphPad Software).”
as §13

Compound: COc1cc2c(c(OC)c1OC)-c1ccc(OC)c(=O)cc1[C@@H](NC(C)=O)CC2 [Colchicine]
- MIC (Candida albicans; C. albicans 10231): >128 µg/mL
- MIC (Candida albicans; Candida albicans, C. albicans 90028, read-out: MIC): > 128 µg/mL
- MIC (Candida glabrata): > 128 µg/mL
- MT nucleation (MAP-rich microtubules): did not affect MT nucleation
- microtubule depolymerization in HuVEC cells (HuVEC): induced microtubule depolymerization

Compound: CC(C)(C)c1[nH]cnc1/C=C1\NC(=O)[C@H](Cc2ccccc2)NC1=O [Compound 2460, (−)-tBu-PLH]
- EC50 (HT-29 cells; Homo sapiens, HT-29, read-out: EC50 (M) Mean): 2.55e-07 M
- % cytotox Mean (HT-29 cells): 87%
- MFC (Trichophyton rubrum; T. rubrum isolate #1): 0.125 µg/mL (≈ 0.369 µM)
- MIC (Trichophyton rubrum; T. rubrum isolate #1): < 0.03 µg/mL
- MFC (Trichophyton rubrum; T. rubrum isolate #2): < 0.03 µg/mL
- MIC (Trichophyton rubrum; T. rubrum isolate #2): < 0.03 µg/mL
- MIC (Epidermophyton floccosum; E. floccosum isolate #1): > 16 µg/mL
- MIC (Epidermophyton floccosum; E. floccosum isolate #2): > 16 µg/mL
- MFC ([1]; T. mentagrophytes isolate #1): > 16 µg/mL
- MIC ([1]; T. mentagrophytes isolate #1): 4 µg/mL (≈ 11.8 µM)
- MIC ([1]; T. mentagrophytes isolate #2): > 16 µg/mL

- EC50 [2]: 1.14e-08 M
- EC50 (B16-F10 melanoma): 16 ± 2 nM
- EC50 [3]: 17 nM
- EC50 [4]: 21 nM
- EC50 [5]: 52 nM
- EC50 (PC-3 prostate carcinoma): > 2000 nM
- EC50 [6]: 13 ± 3 nM
- EC50 [8]: 28 nM
- EC50 ([9]; Homo sapiens, HL60/MX2, HL-60/MX2, mean values of two independent experiments): 19 nM
Compound: CC(C)(C)c1ocnc1/C=c1\[nH]c(=O)/c(=C/c2cc(F)cc(F)c2F)[nH]c1=O [Compound 2503, tBu-oxadelta-PLH-2,3,5-trifluoro]
- EC50 ([7]; Homo sapiens, MES-SA/Dx5, mean ± standard deviation of three independent experiments): 13 ± 3 nM
- cytotoxic activity against both MES-SA and MES-SA/Dx5 ([7]; in words): retained equivalent cytotoxic activity
- Fold change ([7]; ratio of EC50 values (MES-SA/Dx5:MES-SA)): 1.0
- cytotoxic activity against both HL-60 and HL-60/MX2 ([9]; in words): retained cytotoxic activity
- Fold change ([9]; ratio of EC50 values (HL-60/MX2:HL-60)): 0.7

— patent US8129527B2, “Analogs of dehydrophenylahistins and their therapeutic use” (Nereus Pharmacuticals, Inc., priority 2006, dated 2012)
